In patent publication US4742053A, “3-Isoquinoliniomethyl cephalosporin derivatives” (Banyu Pharmaceutical Co., Ltd., priority 1984, dated 1988):
≈ marks a conversion by molar mass, not a printed value. Read-outs that look alike come from different tables or passages of the source.

Columns and labels:
Experiment in all cases: MIC by agar plate dilution method
Format in all cases: cell-based
S. aureus NIHJJC-1 = conditions: for MIC: Staphylococcus aureus
Description: (§1) The minimum inhibitory concentrations (MIC: μg/ml) of the compounds of the present invention against various microorganisms were measured by an agar plate dilution method (inoculum size: 10^6 CFU/ml) by using Sensitivity Disk Agar (Nissui) in comparison with Cefotaxime and Ceftazidime as comparative compounds.
(§2) Minimum Inhibitory Concentration (μg/ml; 10^6 CFU/ml)

E. coli CSH2 = conditions: 10^6 CFU/ml; for MIC: Escherichia coli, read-out: Minimum Inhibitory Concentration
Description: as §1, §2

S. marcescens No. 16-2 = conditions: S. marcescens No. 16-2, 10^6 CFU/ml; for MIC: Serratia marcescens, NO.162, read-out: Minimum Inhibitory Concentration
Description: as §1, §2

E. coli W3630/Rms213 = conditions: 10^6 CFU/ml; for MIC: Escherichia coli, W3630/RMS213, read-out: Minimum Inhibitory Concentration, E. coli W3630/Rms213
Description: as §1, §2

E. coli W3630/Rms212 = conditions: 10^6 CFU/ml; for MIC: Escherichia coli, W3630/RMS212, read-out: Minimum Inhibitory Concentration, E. coli W3630/Rms212
Description: as §1, §2

P. vulgaris No. 33 = conditions: for MIC: Proteus vulgaris
Description: as §1, §2

K. pneumoniae No. 42 = conditions: K. pneumoniae No. 42, 10^6 CFU/ml; for MIC: Klebsiella pneumoniae, read-out: Minimum Inhibitory Concentration
Description: as §1, §2

S. aureus JS-1 = conditions: S. aureus JS-1, 10^6 CFU/ml; for MIC: Staphylococcus aureus, JS1, read-out: Minimum Inhibitory Concentration
Description: as §1, §2

E. coli NIHJJC-2 = conditions: 10^6 CFU/ml; for MIC: Escherichia coli, NIHJJC2, E. coli NIHJJC-2, read-out: Minimum Inhibitory Concentration
Description: as §1, §2

E. coli CSH = conditions: 10^6 CFU/ml; for MIC: Escherichia coli, read-out: Minimum Inhibitory Concentration
Description: as §1, §2

A. calcoaceticus No. 14 = conditions: 10^6 CFU/ml; for MIC: Acinetobacter calcoaceticus, NO.14, A. calcoaceticus No. 14, read-out: Minimum Inhibitory Concentration
Description: as §1, §2

E. coli C/Rms149 = conditions: 10^6 CFU/ml; for MIC: Escherichia coli, read-out: Minimum Inhibitory Concentration, E. coli C/Rms149
Description: as §1, §2

P. aeruginosa AKR17 = conditions: 10^6 CFU/ml; for MIC: Pseudomonas aeruginosa, AKR17, P. aeruginosa AKR17, read-out: Minimum Inhibitory Concentration
Description: as §1, §2

C. freundii No. 7 = conditions: C. freundii No. 7, 10^6 CFU/ml; for MIC: Citrobacter freundii, read-out: Minimum Inhibitory Concentration
Description: as §1, §2

P. mirabilis JY10 = conditions: P. mirabilis JY10, 10^6 CFU/ml; for MIC: Proteus mirabilis, read-out: Minimum Inhibitory Concentration
Description: as §1, §2

P. vulgaris OB1043 = conditions: 10^6 CFU/ml; for MIC: Proteus vulgaris, OB1043, P. vulgaris OB1043, read-out: Minimum Inhibitory Concentration
Description: as §1, §2

P. aeruginosa AK109 = conditions: 10^6 CFU/ml; for MIC: Pseudomonas aeruginosa, AK109, P. aeruginosa AK109, read-out: Minimum Inhibitory Concentration; for Minimum Inhibitory Concentration: P. aeruginosa AK109
Description: as §1, §2

E. cloaceae Nek 39 = conditions: E. cloaceae Nek 39, 10^6 CFU/ml; for MIC: read-out: Minimum Inhibitory Concentration
Description: as §1, §2

P. cepacia 23 = conditions: P. cepacia 23, 10^6 CFU/ml; for MIC: Burkholderia cepacia, read-out: Minimum Inhibitory Concentration
Description: as §1, §2

P. maltophilia IID 1275 = conditions: Stenotrophomonas maltophilia, IID1275; P. maltophilia IID 1275; 10^6 CFU/ml; read-out: Minimum Inhibitory Concentration
Description: as §1, §2

E. coli ML1410/Rte16 = conditions: 10^6 CFU/ml; for MIC: Escherichia coli, ML1410/RTE16, read-out: Minimum Inhibitory Concentration, E. coli ML1410/Rte16
Description: as §1, §2

[1] = NIHJJC1, S. aureus NIHJJC-1, 10^6 CFU/ml, read-out: Minimum Inhibitory Concentration
[2] = P. vulgaris No. 33, 10^6 CFU/ml, read-out: Minimum Inhibitory Concentration

Structure (SMILES)	MIC (S. aureus NIHJJC-1; [1]) [µg/mL]	MIC (E. coli CSH2) [µg/mL]	MIC (S. marcescens No. 16-2) [µg/mL]	MIC (E. coli W3630/Rms213) [µg/mL]	MIC (E. coli W3630/Rms212) [µg/mL]	MIC (P. vulgaris No. 33; [2]) [µg/mL]	MIC (K. pneumoniae No. 42) [µg/mL]	MIC (S. aureus JS-1) [µg/mL]	MIC (E. coli NIHJJC-2) [µg/mL]	MIC (E. coli CSH) [µg/mL]	MIC (A. calcoaceticus No. 14) [µg/mL]	MIC (E. coli C/Rms149) [µg/mL]	MIC (P. aeruginosa AKR17) [µg/mL]	MIC (C. freundii No. 7) [µg/mL]	MIC (P. mirabilis JY10) [µg/mL]	MIC (P. vulgaris OB1043) [µg/mL]	MIC (P. aeruginosa AK109) [µg/mL]	MIC (E. cloaceae Nek 39) [µg/mL]	MIC (P. cepacia 23) [µg/mL]	MIC (E. coli ML1410/Rte16) [µg/mL]	further results
CO/N=C(\C(=O)NC1C(=O)N2C(C(=O)[O-])=C(C[N+]3(C)CCc4ccccc4C3)CSC12)c1csc(N)n1 (stereo not shown) [Ex. 1-B, 7-[(Z)-2-(2-aminothiazol-4-yl)-2-methoxyiminoacetamido]-3-(2-methyl-1,2,3,4-tetrahydro-2-isoquinolinium)methyl-3-cephem-4-carboxylate]	0.78 (≈ 1.44 µM)	0.05 (≈ 0.0921 µM)	6.25 (≈ 11.5 µM)	1.56 (≈ 2.87 µM)	0.2 (≈ 0.369 µM)	0.2 (≈ 0.369 µM)	0.2 (≈ 0.369 µM)	3.12 (≈ 5.75 µM)	0.1 (≈ 0.184 µM)	0.2 (≈ 0.369 µM)	25 (≈ 46.1 µM)	0.1 (≈ 0.184 µM)	> 25	1.56 (≈ 2.87 µM)	0.78 (≈ 1.44 µM)	0.78 (≈ 1.44 µM)	6.25 (≈ 11.5 µM)	1.56 (≈ 2.87 µM)	–	–	–
C[N+]1(CC2=C(C(=O)[O-])N3C(=O)C(NC(=O)C(=NOCC(=O)O)c4csc(N)n4)C3SC2)CCc2cc(O)c(O)cc2C1 (stereo not shown) [Ex. 14-F, 7-[(Z)-2-(2-aminothiazol-4-yl)-2-carboxymethoxyiminoacetamido]-3-(6,7-dihydroxy-2-methyl-1,2,3,4-tetrahydro-2-isoquinolinium)methyl-3-cephem-4-carboxylate]	12.5 (≈ 20.2 µM)	0.025 (≈ 0.0404 µM)	0.39 (≈ 0.63 µM)	0.1 (≈ 0.162 µM)	0.006 (≈ 0.0097 µM)	–	0.05 (≈ 0.0808 µM)	50 (≈ 80.8 µM)	0.025 (≈ 0.0404 µM)	0.05 (≈ 0.0808 µM)	0.1 (≈ 0.162 µM)	0.025 (≈ 0.0404 µM)	0.1 (≈ 0.162 µM)	0.78 (≈ 1.26 µM)	0.2 (≈ 0.323 µM)	0.1 (≈ 0.162 µM)	0.05 (≈ 0.0808 µM)	0.006 (≈ 0.0097 µM)	0.05 (≈ 0.0808 µM)	0.025 (≈ 0.0404 µM)	MIC (P. maltophilia IID 1275): 3.12 µg/mL (≈ 5.04 µM); MIC (P. vulgaris No. 33; NO.33, read-out: Minimum Inhibitory Concentration): 0.05 µg/mL (≈ 0.0808 µM)
CCO/N=C(\C(=O)NC1C(=O)N2C(C(=O)[O-])=C(C[N+]3(C)CCc4ccccc4C3)CSC12)c1csc(N)n1 (stereo not shown) [Ex. 7-D, 7-[(Z)-2-(2-aminothiazol-4-yl)-2-ethoxyiminoacetamido]-3-(2-methyl-1,2,3,4-tetrahydro-2-isoquinolinium)methyl-3-cephem-4-carboxylate]	0.39 (≈ 0.701 µM)	0.1 (≈ 0.18 µM)	6.25 (≈ 11.2 µM)	0.78 (≈ 1.4 µM)	0.78 (≈ 1.4 µM)	0.39 (≈ 0.701 µM)	0.78 (≈ 1.4 µM)	6.25 (≈ 11.2 µM)	0.39 (≈ 0.701 µM)	0.2 (≈ 0.359 µM)	25 (≈ 44.9 µM)	0.39 (≈ 0.701 µM)	> 25	3.12 (≈ 5.6 µM)	3.12 (≈ 5.6 µM)	0.78 (≈ 1.4 µM)	6.25 (≈ 11.2 µM)	3.12 (≈ 5.6 µM)	6.25 (≈ 11.2 µM)	0.39 (≈ 0.701 µM)	–
CO/N=C(\C(=O)NC1C(=O)N2C(C(=O)[O-])=C(C[N+]3(C)CCc4cc(OC)c(OC)cc4C3)CSC12)c1csc(N)n1 (stereo not shown) [Ex. 2-E, 7-[(Z)-2-(2-aminothiazol-4-yl)-2-methoxyiminoacetamido]-3-(6,7-dimethoxy-2-methyl-1,2,3,4-tetrahydro-2-isoquinolinium)methyl-3-cephem-4-carboxylate]	–	0.2 (≈ 0.332 µM)	> 25	3.12 (≈ 5.18 µM)	1.56 (≈ 2.59 µM)	1.56 (≈ 2.59 µM)	1.56 (≈ 2.59 µM)	12.5 (≈ 20.7 µM)	0.78 (≈ 1.29 µM)	1.56 (≈ 2.59 µM)	> 25	0.78 (≈ 1.29 µM)	> 25	12.5 (≈ 20.7 µM)	3.12 (≈ 5.18 µM)	3.12 (≈ 5.18 µM)	25 (≈ 41.5 µM)	12.5 (≈ 20.7 µM)	–	0.78 (≈ 1.29 µM)	MIC (S. aureus NIHJJC-1; NIHJJC1, read-out: Minimum Inhibitory Concentration): 1.56 µg/mL (≈ 2.59 µM)
CC(C)(O/N=C(\C(=O)NC1C(=O)N2C(C(=O)[O-])=C(C[N+]3(C)CCc4ccccc4C3)CSC12)c1csc(N)n1)C(=O)O (single isomer, unassigned) [Isomer B of Ex. 8-E, 7-[(Z)-2-(2-aminothiazol-4-yl)-2-(1-carboxy-1-methylethoxyimino)acetamido]-3-(2-methyl-1,2,3,4-tetrahydro-2-isoquinolinium)methyl-3-cephem-4-carboxylate]	–	–	–	–	–	–	–	–	–	–	–	–	–	–	–	–	–	–	–	–	Minimum Inhibitory Concentration (P. cepacia 23): 6.25 µg/mL; Minimum Inhibitory Concentration (S. aureus NIHJJC-1; S. aureus NIHJJC-1, 10^6 CFU/ml): 12.5 µg/mL; Minimum Inhibitory Concentration (E. coli CSH2): 0.1 µg/mL; Minimum Inhibitory Concentration (S. marcescens No. 16-2): 3.12 µg/mL; Minimum Inhibitory Concentration (E. coli W3630/Rms213; E. coli W3630/Rms213): 0.78 µg/mL; Minimum Inhibitory Concentration (E. coli W3630/Rms212; E. coli W3630/Rms212): 0.78 µg/mL; Minimum Inhibitory Concentration (P. vulgaris No. 33; P. vulgaris No. 33, 10^6 CFU/ml): 0.1 µg/mL; Minimum Inhibitory Concentration (K. pneumoniae No. 42): 0.78 µg/mL; Minimum Inhibitory Concentration (S. aureus JS-1): > 25 µg/mL; Minimum Inhibitory Concentration (E. coli NIHJJC-2; E. coli NIHJJC-2): 0.39 µg/mL; Minimum Inhibitory Concentration (E. coli CSH): 0.2 µg/mL; Minimum Inhibitory Concentration (A. calcoaceticus No. 14; A. calcoaceticus No. 14): > 25 µg/mL; Minimum Inhibitory Concentration (E. coli C/Rms149; E. coli C/Rms149): 0.39 µg/mL; Minimum Inhibitory Concentration (E. coli ML1410/Rte16; E. coli ML1410/Rte16): 0.39 µg/mL; Minimum Inhibitory Concentration (P. aeruginosa AKR17; P. aeruginosa AKR17): > 25 µg/mL; Minimum Inhibitory Concentration (C. freundii No. 7): 1.56 µg/mL; Minimum Inhibitory Concentration (P. mirabilis JY10): 0.2 µg/mL; Minimum Inhibitory Concentration (P. vulgaris OB1043; P. vulgaris OB1043): 0.2 µg/mL; Minimum Inhibitory Concentration (P. aeruginosa AK109): 3.12 µg/mL; Minimum Inhibitory Concentration (E. cloaceae Nek 39): 3.12 µg/mL
CC(C)(O/N=C(\C(=O)NC1C(=O)N2C(C(=O)[O-])=C(C[N+]3(C)CCc4ccccc4C3)CSC12)c1csc(N)n1)C(=O)O (single isomer, unassigned) [Isomer A of Ex. 8-E, 7-[(Z)-2-(2-aminothiazol-4-yl)-2-(1-carboxy-1-methylethoxyimino)acetamido]-3-(2-methyl-1,2,3,4-tetrahydro-2-isoquinolinium)methyl-3-cephem-4-carboxylate]	6.25 (≈ 10.2 µM)	0.1 (≈ 0.163 µM)	3.12 (≈ 5.08 µM)	0.39 (≈ 0.634 µM)	0.39 (≈ 0.634 µM)	0.1 (≈ 0.163 µM)	0.78 (≈ 1.27 µM)	> 25	0.2 (≈ 0.325 µM)	0.1 (≈ 0.163 µM)	25 (≈ 40.7 µM)	0.2 (≈ 0.325 µM)	25 (≈ 40.7 µM)	1.56 (≈ 2.54 µM)	0.2 (≈ 0.325 µM)	0.1 (≈ 0.163 µM)	–	1.56 (≈ 2.54 µM)	6.25 (≈ 10.2 µM)	0.2 (≈ 0.325 µM)	Minimum Inhibitory Concentration (P. aeruginosa AK109): 6.25 µg/mL
